{
  "source": "ChEMBL document CHEMBL1201862",
  "about": "“PubChem BioAssay data set” (2004)",
  "assay_in_all_cases": "inhibition of tumour cell growth, NCI panel, 48 h",
  "key": {"[1]": {"test_system": "NCI-H460"}, "[2]": {"test_system": "MCF7"}, "[3]": {"test_system": "K562"}, "[4]": {"test_system": "SW-620"}, "[5]": {"test_system": "U-251"}, "[6]": {"test_system": "HCT-15"}, "[7]": {"test_system": "HT-29"}, "[8]": {"test_system": "RPMI-8226"}, "[9]": {"test_system": "A549"}, "[10]": {"test_system": "NCI/ADR-RES"}, "[11]": {"test_system": "KM-20L2"}, "[12]": {"test_system": "SF-295"}, "[13]": {"test_system": "OVCAR-3"}, "[14]": {"test_system": "SNB-78"}, "[15]": {"test_system": "OVCAR-5"}, "[16]": {"test_system": "CCRF-CEM"}, "[17]": {"test_system": "SNB-19"}, "[18]": {"test_system": "EKVX"}, "[19]": {"test_system": "ACHN"}, "[20]": {"test_system": "TK-10"}},
  "note": "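A five-concentration, 48-hour dose response in 96-well plates underlies each endpoint, interpolated linearly between surrounding concentrations. Abbreviation: GI50, concentration required for 50% inhibition of growth.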 Calls of active or inactive are those of the source. Rule as the data show it: active = GI50 up to about 1.1 µM and inactive = higher.",
  "data": [
    {"smiles": "COc1ccc2c(c1O)-c1cc(O)cc3c1[C@@H](C2)N(C)CC3", "values": [
      {"measurement": "GI50", "setting": "[1]", "result": "74 µM (inactive)"},
      {"measurement": "GI50", "setting": "[2]", "result": "61.8 µM (inactive)"},
      {"measurement": "GI50", "setting": "[3]", "result": "67.6 µM (inactive)"},
      {"measurement": "GI50", "setting": "[4]", "result": "61.8 µM (inactive)"},
      {"measurement": "GI50", "setting": "[5]", "result": "10.7 µM (inactive)"},
      {"measurement": "GI50", "setting": "[6]", "result": 71.1, "unit": "µM"},
      {"measurement": "GI50", "setting": "[7]", "result": "> 92.3 µM (inactive)"},
      {"measurement": "GI50", "setting": "[8]", "result": "75.3 µM (inactive)"},
      {"measurement": "GI50", "setting": "[9]", "result": "77.1 µM (inactive)"},
      {"measurement": "GI50", "setting": "[10]", "result": "75.9 µM (inactive)"},
      {"measurement": "GI50", "setting": "[11]", "result": "2.84 µM (inactive)"},
      {"measurement": "GI50", "setting": "[12]", "result": "72.3 µM (inactive)"},
      {"measurement": "GI50", "setting": "[13]", "result": "55.8 µM (inactive)"},
      {"measurement": "GI50", "setting": "[14]", "result": "83 µM (inactive)"},
      {"measurement": "GI50", "setting": "[15]", "result": "6.41 µM (inactive)"},
      {"measurement": "GI50", "setting": "[16]", "result": "81.1 µM (inactive)"},
      {"measurement": "GI50", "setting": "[17]", "result": "101 µM (inactive)"},
      {"measurement": "GI50", "setting": "[18]", "result": "98.4 µM (inactive)"}
    ]},
    {"smiles": "C[C@]12CC[C@@H]3c4ccc(OCCN5CCCC5)cc4CC[C@H]3[C@@H]1CCC2=O", "values": [
      {"measurement": "GI50", "setting": "[1]", "result": "19.9 µM (inactive)"},
      {"measurement": "GI50", "setting": "[2]", "result": "22.5 µM (inactive)"},
      {"measurement": "GI50", "setting": "[3]", "result": "25.4 µM (inactive)"},
      {"measurement": "GI50", "setting": "[4]", "result": "41 µM (inactive)"},
      {"measurement": "GI50", "setting": "[5]", "result": "75.2 µM (inactive)"},
      {"measurement": "GI50", "setting": "[19]", "result": "62.7 µM (inactive)"},
      {"measurement": "GI50", "setting": "[6]", "result": 6.35, "unit": "µM"},
      {"measurement": "GI50", "setting": "[7]", "result": "25.9 µM (inactive)"},
      {"measurement": "GI50", "setting": "[20]", "result": "41 µM (inactive)"},
      {"measurement": "GI50", "setting": "[8]", "result": "23.7 µM (inactive)"},
      {"measurement": "GI50", "setting": "[9]", "result": "23.6 µM (inactive)"},
      {"measurement": "GI50", "setting": "[10]", "result": "24.7 µM (inactive)"},
      {"measurement": "GI50", "setting": "[12]", "result": "18.7 µM (inactive)"},
      {"measurement": "GI50", "setting": "[13]", "result": "23.9 µM (inactive)"},
      {"measurement": "GI50", "setting": "[15]", "result": "33.7 µM (inactive)"},
      {"measurement": "GI50", "setting": "[16]", "result": "37.9 µM (inactive)"},
      {"measurement": "GI50", "setting": "[17]", "result": "64.3 µM (inactive)"},
      {"measurement": "GI50", "setting": "[18]", "result": "18.2 µM (inactive)"}
    ]},
    {"smiles": "CNC(=O)SCC(N)C(=O)O", "note": "(stereo not given)", "values": [
      {"measurement": "GI50", "setting": "[1]", "result": "> 68.7 µM (inactive)"},
      {"measurement": "GI50", "setting": "[2]", "result": "> 100 µM (inactive)"},
      {"measurement": "GI50", "setting": "[3]", "result": "30.6 µM (inactive)"},
      {"measurement": "GI50", "setting": "[4]", "result": "> 85.9 µM (inactive)"},
      {"measurement": "GI50", "setting": "[5]", "result": "> 89.9 µM (inactive)"},
      {"measurement": "GI50", "setting": "[6]", "result": 46, "unit": "µM"},
      {"measurement": "GI50", "setting": "[7]", "result": "> 71.3 µM (inactive)"},
      {"measurement": "GI50", "setting": "[8]", "result": "25.4 µM (inactive)"},
      {"measurement": "GI50", "setting": "[9]", "result": "> 100 µM (inactive)"},
      {"measurement": "GI50", "setting": "[10]", "result": "> 100 µM (inactive)"},
      {"measurement": "GI50", "setting": "[11]", "result": "> 100 µM (inactive)"},
      {"measurement": "GI50", "setting": "[12]", "result": "> 66.2 µM (inactive)"},
      {"measurement": "GI50", "setting": "[13]", "result": "> 100 µM (inactive)"},
      {"measurement": "GI50", "setting": "[14]", "result": "> 100 µM (inactive)"},
      {"measurement": "GI50", "setting": "[15]", "result": "> 100 µM (inactive)"},
      {"measurement": "GI50", "setting": "[16]", "result": "25.8 µM (inactive)"},
      {"measurement": "GI50", "setting": "[17]", "result": "> 100 µM (inactive)"},
      {"measurement": "GI50", "setting": "[18]", "result": "> 100 µM (inactive)"}
    ]},
    {"smiles": "Cn1c(=O)[nH]c2nncnc2c1=O", "values": [
      {"measurement": "GI50", "setting": "[1]", "result": "29.3 µM (inactive)"},
      {"measurement": "GI50", "setting": "[2]", "result": "212 µM (inactive)"},
      {"measurement": "GI50", "setting": "[3]", "result": "211 µM (inactive)"},
      {"measurement": "GI50", "setting": "[4]", "result": "75 µM (inactive)"},
      {"measurement": "GI50", "setting": "[5]", "result": "28.7 µM (inactive)"},
      {"measurement": "GI50", "setting": "[6]", "result": 299, "unit": "µM"},
      {"measurement": "GI50", "setting": "[7]", "result": "114 µM (inactive)"},
      {"measurement": "GI50", "setting": "[8]", "result": "77.4 µM (inactive)"},
      {"measurement": "GI50", "setting": "[9]", "result": "80 µM (inactive)"},
      {"measurement": "GI50", "setting": "[10]", "result": "217 µM (inactive)"},
      {"measurement": "GI50", "setting": "[11]", "result": "55.2 µM (inactive)"},
      {"measurement": "GI50", "setting": "[12]", "result": "103 µM (inactive)"},
      {"measurement": "GI50", "setting": "[13]", "result": "78.9 µM (inactive)"},
      {"measurement": "GI50", "setting": "[14]", "result": "151 µM (inactive)"},
      {"measurement": "GI50", "setting": "[15]", "result": "186 µM (inactive)"},
      {"measurement": "GI50", "setting": "[16]", "result": "173 µM (inactive)"},
      {"measurement": "GI50", "setting": "[17]", "result": "51.2 µM (inactive)"},
      {"measurement": "GI50", "setting": "[18]", "result": "40.5 µM (inactive)"}
    ]},
    {"smiles": "CCOC(=O)CCC(NC(=O)OCc1ccccc1)C(=O)NC(CCC(=O)OCC)C(=O)NNC(=O)OC(C)(C)C", "note": "(stereo not given)", "values": [
      {"measurement": "GI50", "setting": "[1]", "result": "> 100 µM (inactive)"},
      {"measurement": "GI50", "setting": "[2]", "result": "> 100 µM (inactive)"},
      {"measurement": "GI50", "setting": "[3]", "result": "> 100 µM (inactive)"},
      {"measurement": "GI50", "setting": "[5]", "result": "> 100 µM (inactive)"},
      {"measurement": "GI50", "setting": "[6]", "result": "> 100", "unit": "µM"},
      {"measurement": "GI50", "setting": "[8]", "result": "> 100 µM (inactive)"},
      {"measurement": "GI50", "setting": "[10]", "result": "> 100 µM (inactive)"},
      {"measurement": "GI50", "setting": "[12]", "result": "> 100 µM (inactive)"},
      {"measurement": "GI50", "setting": "[13]", "result": "> 100 µM (inactive)"},
      {"measurement": "GI50", "setting": "[15]", "result": "> 100 µM (inactive)"},
      {"measurement": "GI50", "setting": "[16]", "result": "38.5 µM (inactive)"},
      {"measurement": "GI50", "setting": "[17]", "result": "> 100 µM (inactive)"}
    ]},
    {"smiles": "O=C(c1ccccc1)c1ccc2n[se]nc2c1", "values": [
      {"measurement": "GI50", "setting": "[3]", "result": "4.29 µM (inactive)"},
      {"measurement": "GI50", "setting": "[4]", "result": "10.3 µM (inactive)"},
      {"measurement": "GI50", "setting": "[5]", "result": "> 100 µM (inactive)"},
      {"measurement": "GI50", "setting": "[19]", "result": "7.03 µM (inactive)"},
      {"measurement": "GI50", "setting": "[6]", "result": 14, "unit": "µM"},
      {"measurement": "GI50", "setting": "[7]", "result": "6.34 µM (inactive)"},
      {"measurement": "GI50", "setting": "[20]", "result": "> 100 µM (inactive)"},
      {"measurement": "GI50", "setting": "[8]", "result": "28.4 µM (inactive)"},
      {"measurement": "GI50", "setting": "[9]", "result": "34.8 µM (inactive)"},
      {"measurement": "GI50", "setting": "[11]", "result": "31.4 µM (inactive)"},
      {"measurement": "GI50", "setting": "[12]", "result": "7.4 µM (inactive)"},
      {"measurement": "GI50", "setting": "[14]", "result": "> 100 µM (inactive)"},
      {"measurement": "GI50", "setting": "[15]", "result": "36.5 µM (inactive)"},
      {"measurement": "GI50", "setting": "[16]", "result": "17.8 µM (inactive)"},
      {"measurement": "GI50", "setting": "[17]", "result": "> 100 µM (inactive)"},
      {"measurement": "GI50", "setting": "[18]", "result": "56.5 µM (inactive)"}
    ]}
  ]
}
